For orientation: pKi means the negative decadic logarithm of the Ki, by convention in mol/L.

From US7776868B2, “Substituted bicyclic and tricyclic thieno[2,3-d]pyrimidines as A2A adenosine receptor antagonists” (Gilead Palo Alto, Inc., priority 2006, dated 2010) come the findings set out here.

pKi: −log10 of the molar value.

In the test the target is A2A adenosine receptor (UniProt P29274). The test can be described thus: A2A radioligand competitive binding assay (3H-MSX-2 displacement). Also on record: species or system human. Conditions: competitive binding vs 2 nM 3H-MSX-2, 15 ug A2A membrane, 23° C., 2 hours. From the text:
A tritiated adenosine A2A antagonist, 3-(3-hydroxypropyl)-7-methyl-8-(m-methoxystyryl)-1-propargylxanthine, (3H-MSX-2, specific activity: 80 Ci/mmol), was purchased from American Radiolabeled Chemicals, Inc (St. Louis, Mo.). A tritiated adenosine A1 antagonist, 1,3-Dipropyl-8-cyclopentylxanthine ([^3H]DPCPX, specific activity: 120 Ci/mmol) was purchased from Perkin Elmer (Boston, Mass.). A tritiated adenosine A2B antagonist, 4-(2-[7-amino-2-(2-furyl) [1,2,4]triazolo[2,3-a][1,3,5]triazin-5-ylamino]ethyl)phenol ([^3H]ZM241385 specific activity: 27.4 Ci/mmol) was purchased from American Radiolabeled Chemicals, Inc (St. Louis, Mo.). Adenosine Deaminase (ADA) was purchased from Roche Molecular Biochemicals (Nutley, N.J.). GTP was purchased from Sigma. Concentrated stock solution (10 mM) of compounds was dissolved in dimethylsulfoxide (DMSO), stored at −20° C., and diluted in Tris-EDTA buffer (50 mM Tris and 1 mM EDTA, 10 mM MgCl2, pH 7.4) for use in experiments. The final content of dimethylsulfoxide in Tris-EDTA buffer during experiments was not more than 1%. Male Sprague Dawley rats, weighted 250-400 g, 8-10 weeks old, were purchased from Charles River Labs (Wilmington, Mass.).
HEK293 (Human Embryonic Kidney 293) cells stably expressing human A2A adenosine receptor or human A2B adenosine receptor were maintained in DMEM supplemented with 10% fetal bovine serum, 2 mM L-glutamine, 100 IU/ml penicillin, 50 μg/ml streptomycin and 2 μg/ml puromycin. CHO (Chinese Hamster Ovary) cells stably expressing human A1 adenosine receptor or human A3 adenosine receptor were maintained in F12K medium supplemented with 10% fetal bovine serum, 2 mM L-glutamine, 100 IU penicillin, 50 μg/ml streptomycin and 8 μg/ml puromycin. PC12 (rat pheochromocytoma) cells were cultured in F12K medium supplemented with 10% horse serum and 2.5% fetal bovine serum, 2 mM L-glutamine, 100 IU/ml penicillin, and 50 μg/ml streptomycin. All cells were maintained at 37° C. in a humidified 5% CO2/95% air incubator and recultivated 2 times per week.
Cultured cells in 150 mm^2 dishes were washed once with PBS, detached by scrapping, collected with buffer A (10 mM HEPES, 10 mM EDTA, pH 7.4) containing protease inhibitor cocktail. Cells were then homogenized by a handheld homogenizer at a speed of 4.5 for 1 min. The homogenate was centrifuged by a Beckman ultracentrifuge at a speed of 29,000×g for 15 min. The pellets were resuspended in buffer HE (10 mM HEPES, 1 mM EDTA, pH 7.4, with protease inhibitor cocktail), centrifuged again at 29,000×g for 15 min. The crude membrane was resuspended using buffer HE, and protein concentration was measured by the method of Lowery with BSA as standard. Similar procedures were used for membrane preparation for fresh rat tissues. All experimental procedures were done at 4° C. Membranes were aliquot and kept at −80° C.
The binding assays utilized 15 ug of A2A membrane (human recombinant A2A membrane, rat striatal membrane, or PC 12 cell membrane) that had been treated with adenosine deaminase and 50 mM Tris-EDTA buffer (pH=7.4) followed by mixing 2 μL of serially diluted DMSO stock solution of the compounds of this invention at concentrations ranging from 10 μM to 0.1 nM or the control received 2 μL of DMSO alone, then the tritiated antagonist 3-(3-hydroxypropyl)-7-methyl-8-(m-methoxystyryl)-1-propargylxanthine (3H-MSX-2) in Tris-EDTA buffer (50 mM Tris, 1 mM EDTA, 10 mM MgCl2, pH of 7.4) was added to achieve a final concentration of 2 nM. After incubation at 23° C. for 2 hours, the solutions were filtered using a membrane harvester with multiple washing of the membranes (3×). The filter plates were counted in scintillation cocktail affording the amount of displacement ^3H-MSX-2 by the competitive binding compositions of this invention. Radioligand binding data was analyzed using GraphPad Prism version 4.0 (San Diego, Calif.). […]
As to `CCn1c(=O)[nH]c2sc(/C=C/c3ccc(-c4ccccc4)cc3)c(C)c2c1=O` [VIII, 6-[(1E)-2-(4-phenylphenyl)vinyl]-3-ethyl-5-methyl-1,3-dihydrothiopheno[2,3-d]pyrimidine-2,4-dione], the negative-log Ki (pKi) was 6.11.
The compound `CCn1c(=O)[nH]c2sc(/C=C/c3cc(OC)cc(OC)c3)c(C)c2c1=O` [XVIII, 6-[(1E)-2-(3,5-dimethoxyphenyl)vinyl]-3-ethyl-5-methyl-1,3-dihydrothiopheno[2,3-d]pyrimidine-2,4-dione] had a pKi of 7.02.
Next, `CCn1c(=O)[nH]c2sc(/C=C/c3cccnc3)c(C)c2c1=O` [XII, 6-((1E)-2-(3-pyridyl)vinyl)-3-ethyl-5-methyl-1,3-dihydrothiopheno[2,3-d]pyrimidine-2,4-dione]: 7.48.
As for `CCn1c(=O)c2c(C)c(/C=C/c3ccc(OC)c(OC)c3)sc2n(COCc2ccccc2)c1=O` [II, 6-[(1E)-2-(3,4-dimethoxyphenyl)vinyl]-3-ethyl-5-methyl-1-[(phenylmethoxy)methyl]-1,3-dihydrothiopheno[2,3-d]pyrimidine-2,4-dione], the figure is 6.06.
As for `COc1ccc(/C=C/c2sc3[nH]c(=O)n(CC(C)C)c(=O)c3c2C)cc1OC` [XI, 6-[(1E)-2-(3,4-dimethoxyphenyl)vinyl]-5-methyl-3-(2-methylpropyl)-1,3-dihydrothiopheno[2,3-d]pyrimidine-2,4-dione], the figure is 6.56.
The compound `CCn1c(=O)[nH]c2sc(/C=C/c3ccc(C)cc3)c(C)c2c1=O` [XIII, 6-[(1E)-2-(4-methylphenyl)vinyl]-3-ethyl-5-methyl-1,3-dihydrothiopheno[2,3-d]pyrimidine-2,4-dione] gave a pKi of 6.74. This pKi and that of the compound before are within 0.2 log units of each other.
Take `CCn1c(=O)c2c(C)c(/C=C/c3ccc(OC)c(OC)c3)sc2n(C)c1=O` [I, 6-[(1E)-2-(3,4-dimethoxyphenyl)vinyl]-3-ethyl-1,5-dimethyl-1,3-dihydrothiopheno[2,3-d]pyrimidine-2,4-dione]: the pKi is 6.66.
The compound `CCn1c(=O)[nH]c2sc(/C=C/c3ccc(C(F)(F)F)cc3)c(C)c2c1=O` [IX, 6-{(1E)-2-[4-(trifluoromethyl)phenyl]vinyl}-3-ethyl-5-methyl-1,3-dihydrothiopheno[2,3-d]pyrimidine-2,4-dione] had a pKi of 6.17.
As for `CCn1c(=O)[nH]c2sc(/C=C/c3cccc(OC)c3)c(C)c2c1=O` [XVI, 6-[(1E)-2-(3-methoxyphenyl)vinyl]-3-ethyl-5-methyl-1,3-dihydrothiopheno[2,3-d]pyrimidine-2,4-dione], the figure is 6.98; as for `CCn1c(=O)[nH]c2sc(/C=C/c3ccccc3)c(C)c2c1=O` [III, 6-((1E)-2-phenylvinyl)-3-ethyl-5-methyl-1,3-dihydrothiopheno[2,3-d]pyrimidine-2,4-dione], 6.77.
As for `CCn1c(=O)[nH]c2sc(/C=C/c3ccccc3OC)c(C)c2c1=O` [XVII, 6-[(1E)-2-(2-methoxyphenyl)vinyl]-3-ethyl-5-methyl-1,3-dihydrothiopheno[2,3-d]pyrimidine-2,4-dione], the figure is 7.42; as for `CCn1c(=O)[nH]c2sc(/C=C/c3ccc(F)cc3)c(C)c2c1=O` [IV, 6-[(1E)-2-(4-fluorophenyl)vinyl]-3-ethyl-5-methyl-1,3-dihydrothiopheno[2,3-d]pyrimidine-2,4-dione], 6.72; as for `CCn1c(=O)[nH]c2sc(/C=C/c3ccccc3F)c(C)c2c1=O` [XV, 6-[(1E)-2-(2-fluorophenyl)vinyl]-3-ethyl-5-methyl-1,3-dihydrothiopheno[2,3-d]pyrimidine-2,4-dione], 6.77.
As for `CCn1c(=O)[nH]c2sc(/C=C/c3ccc(OC)c(OC)c3)c(C)c2c1=O` [X, 6-[(1E)-2-(3,4-dimethoxyphenyl)vinyl]-3-ethyl-5-methyl-1,3-dihydrothiopheno[2,3-d]pyrimidine-2,4-dione], the figure is 7.12; as for `CCn1c(=O)[nH]c2sc(/C=C/c3cccc(F)c3)c(C)c2c1=O` [VI, 6-[(1E)-2-(3-fluorophenyl)vinyl]-3-ethyl-5-methyl-1,3-dihydrothiopheno[2,3-d]pyrimidine-2,4-dione], 6.62; as for `CCn1c(=O)[nH]c2sc(/C=C/c3ccc(Cl)cc3)c(C)c2c1=O` [VII, 6-[(1E)-2-(4-chlorophenyl)vinyl]-3-ethyl-5-methyl-1,3-dihydrothiopheno[2,3-d]pyrimidine-2,4-dione], 6.49.
Regarding `C#CCn1c(=O)c2c(C)c(/C=C/c3ccccc3)sc2n(C)c1=O` [V, 6-((1E)-2-phenylvinyl)-1,5-dimethyl-3-prop-2-ynyl-1,3-dihydrothiopheno[2,3-d]pyrimidine-2,4-dione], the negative logarithm of the Ki (pKi) was 6.41.
With `CCn1c(=O)[nH]c2sc(/C=C/c3ccc(OC)cc3)c(C)c2c1=O` [XIV, 6-[(1E)-2-(4-methoxyphenyl)vinyl]-3-ethyl-5-methyl-1,3-dihydrothiopheno[2,3-d]pyrimidine-2,4-dione], the negative logarithm of the Ki (pKi) was 6.92. Compared with the last compound, the pKi is 0.51 log units higher.
